Test results published in publication PMC10778626, “Efficacy of Novel Quaternary Ammonium and Phosphonium Salts Differing in Cation Type and Alkyl Chain Length against Antibiotic-Resistant Staphylococcus aureus” (International Journal of Molecular Sciences, 2023).
≈ marks a conversion by molar mass, not a printed value.

Legend:
HepG2 cells = assay: Cytotoxicity by neutral red (NR) uptake; format: cell-based, human; conditions: HepG2, 24 h
Method: The evaluation of the cytotoxicity effects of QHSs was performed using hepatocellular carcinoma (HepG2) cells. […] The cells used for all experiments were taken between the 9th and 13th passages, to avoid phenotypic changes.
The cytotoxicity profile of the compounds under study was evaluated in HepG2 cells (2.5 × 10^5 cells/mL) seeded in 96-well plates. […] Control experiments were performed for viability endpoints by adding the vehicle (medium with 0.1% DMSO) instead of the compound solution.
In the NR uptake assay, following a 24 h incubation period with the test compounds, the cell culture medium was aspirated, and fresh medium containing 150 µL of the dye (at a concentration of […]) was added to the cells. […] After incubation, the cell culture medium was discarded, and a mixture of absolute ethanol and distilled water (1:1) containing 5% acetic acid was added to extract the dye accumulated within the lysosomes of viable cells. The absorbance at 540 nm was measured using a microplate reader (Synergy HTX Multi-Mode Reader—BioTek, Winooski, VT, USA).
For all assays, results are expressed as a percentage of the control (nontreated cells), taken as 100%.

S. aureus CECT 976 = tested on: S. aureus CECT 976; parameters: method as in Abreu et al. [44]; conditions: antibiotics, broth microdilution, ref Abreu et al. [44]; cited from earlier work
S. aureus SA1199B = conditions: antibiotics, ref Abreu et al. [44]; cited from earlier work

SMILES | NR uptake (lysosomal activity), % of control (HepG2 cells; 2 µg/mL) | NR uptake (lysosomal activity), % of control (HepG2 cells; 16 µg/mL) | NR uptake (lysosomal activity), % of control (HepG2 cells; 32 µg/mL) | MIC (S. aureus CECT 976) | MIC (S. aureus SA1199B)
O=C(O)c1cn(C2CC2)c2cc(N3CCNCC3)c(F)cc2c1=O [[CIP], ciprofloxacin, reference compound] | 106.7 ± 11.16% (ns) | 96.82 ± 5.237% (ns) | 92.35 ± 6.807% (ns) | 1 µg/mL (≈ 3.02 µM) | 128 µg/mL (≈ 386 µM)
CC[C@H]1OC(=O)[C@H](C)[C@@H](O[C@H]2C[C@@](C)(OC)[C@@H](O)[C@H](C)O2)[C@H](C)[C@@H](O[C@@H]2O[C@H](C)C[C@H](N(C)C)[C@H]2O)[C@](C)(O)C[C@@H](C)C(=O)[C@H](C)[C@@H](O)[C@]1(C)O [[ERY], erythromycin, reference compound] | 108.4 ± 4.998% (ns) | 107.1 ± 7.642% (ns) | 110.2 ± 9.546% (ns) | 0.24 µg/mL (≈ 0.327 µM) | –
CN(C)[C@@H]1C(O)=C(C(N)=O)C(=O)[C@@]2(O)C(O)=C3C(=O)c4c(O)cccc4[C@@](C)(O)[C@H]3C[C@@H]12 [[TET], tetracycline] | – | – | – | 0.96 µg/mL (≈ 2.16 µM) | –
